Experimental data from the supplement of paper PMC9663587.

What was measured:
INK128/MLN0128 = compound: CC(C)n1nc(-c2ccc3oc(N)nc3c2)c2c(N)ncnc21 [INK128/MLN0128]
R0-3306 = compound: C1=CC2=C(C=CC(=C2)C=C3C(=O)NC(=NCC4=CC=CS4)S3)N=C1 [R0-3306]
Neratinib/HKI272 = compound: CCOc1cc2ncc(C#N)c(Nc3ccc(OCc4ccccn4)c(Cl)c3)c2cc1NC(=O)/C=C/CN(C)C [Neratinib/HKI272]
[1] = compound: Cc1nn(C)c(COc2ccc(N3CCN(S(=O)(=O)N(C)C)CC3)cc2)c1-c1cccc2c(CCCOc3cccc4ccccc34)c(C(=O)O)n(CCN3CCOCC3)c12
THZ531 = compound: CN(C)C/C=C/C(=O)Nc1ccc(C(=O)N2CCC[C@@H](Nc3ncc(Cl)c(-c4c[nH]c5ccccc45)n3)C2)cc1 [THZ531]
ABT-737 = compound: CN(C)CC[C@H](CSc1ccccc1)Nc1ccc(S(=O)(=O)NC(=O)c2ccc(N3CCN(Cc4ccccc4-c4ccc(Cl)cc4)CC3)cc2)cc1[N+](=O)[O-] [ABT-737]
Taselisib/GDC0032 = compound: Cc1nc(-c2cn3c(n2)-c2ccc(-c4cnn(C(C)(C)C(N)=O)c4)cc2OCC3)n(C(C)C)n1 [Taselisib/GDC0032]
AZD1775 = compound: C=CCn1c(=O)c2cnc(Nc3ccc(N4CCN(C)CC4)cc3)nc2n1-c1cccc(C(C)(C)O)n1 [AZD1775]
[2] = compound: CC(=O)Nc1cccc(-n2c(=O)n(C3CC3)c(=O)c3c(Nc4ccc(I)cc4F)n(C)c(=O)c(C)c32)c1
Volasertib/BI6727 = compound: CC[C@@H]1C(=O)N(C)c2cnc(Nc3ccc(C(=O)N[C@H]4CC[C@H](N5CCN(CC6CC6)CC5)CC4)cc3OC)nc2N1C(C)C [Volasertib/BI6727]
Flavopiridol = compound: CN1CC[C@H](c2c(O)cc(O)c3c(=O)cc(-c4ccccc4Cl)oc23)[C@H](O)C1 [Flavopiridol]
Cediranib/AZD2171 = compound: COc1cc2c(Oc3ccc4[nH]c(C)cc4c3F)ncnc2cc1OCCCN1CCCC1 [Cediranib/AZD2171]
Alpelisib/BYL719 = compound: Cc1nc(NC(=O)N2CCC[C@H]2C(N)=O)sc1-c1ccnc(C(C)(C)C(F)(F)F)c1 [Alpelisib/BYL719]
AZD6738 = compound: C[C@@H]1COCCN1c1cc(C2([S@](C)(=N)=O)CC2)nc(-c2cc[nH]c3nccc2-3)n1 [AZD6738]
Doxorubicin = compound: COc1cccc2c1C(=O)c1c(O)c3c(c(O)c1C2=O)C[C@@](O)(C(=O)CO)C[C@@H]3O[C@H]1C[C@H](N)[C@H](O)[C@H](C)O1 [Doxorubicin]
Tivantinib/ARQ197 = compound: O=C1NC(=O)[C@@H](c2cn3c4c(cccc24)CCC3)[C@@H]1c1c[nH]c2ccccc12 [Tivantinib/ARQ197]
Dasatinib = compound: Cc1nc(Nc2ncc(C(=O)Nc3c(C)cccc3Cl)s2)cc(N2CCN(CCO)CC2)n1 [Dasatinib]
THZ1 = compound: CN(C)C/C=C/C(=O)Nc1ccc(C(=O)Nc2cccc(Nc3ncc(Cl)c(-c4c[nH]c5ccccc45)n3)c2)cc1 [THZ1]
TGX221 = compound: CC1=CN2C(=O)C=C(N=C2C(=C1)C(C)NC3=CC=CC=C3)N4CCOCC4 [TGX221]
[3] = compound: CNc1nc(-c2ccc3c(N)n[nH]c3c2)cc(N2C[C@@H](C(=O)NC3CCCCC3)CC[C@H]2C)n1
AZD7762 = compound: NC(=O)Nc1cc(-c2cccc(F)c2)sc1C(=O)N[C@H]1CCCNC1 [AZD7762]
[4] = compound: COc1ccc2c(c1)[C@]1(C[C@H]1c1ccc3c(/C=C/c4ccc(CN5C[C@@H](C)O[C@@H](C)C5)cc4)n[nH]c3c1)C(=O)N2
senexin b = compound: CN1CCN(C(=O)c2ccc3cc(CCNc4ncnc5ccc(C#N)cc45)ccc3c2)CC1 [senexin b]
[5] = compound: CO[C@@H](C)Cn1c(=O)n(C)c2cnc3ccc(-c4cncc(C(C)(C)O)c4)cc3c21
[6] = compound: CCC1=CN=CN=C1N2CCN(CC2)CC3=NC4=C(N3)C=C(C=C4)C(F)(F)F
Torin2 = compound: C1=CC(=CC(=C1)N2C(=O)C=CC3=CN=C4C=CC(=CC4=C32)C5=CN=C(C=C5)N)C(F)(F)F [Torin2]
AZD2014 = compound: CNC(=O)c1cccc(-c2ccc3c(N4CCOC[C@@H]4C)nc(N4CCOC[C@@H]4C)nc3n2)c1 [AZD2014]
LEE011/Ribociclib = compound: CN(C)C(=O)c1cc2cnc(Nc3ccc(N4CCNCC4)cn3)nc2n1C1CCCC1 [LEE011/Ribociclib]
[7] = compound: CC(=O)c1c(C)c2cnc(Nc3ccc(N4CCNCC4)cn3)nc2n(C2CCCC2)c1=O
Olaparib/AZD2281 = compound: O=C(c1cc(Cc2n[nH]c(=O)c3ccccc23)ccc1F)N1CCN(C(=O)C2CC2)CC1 [Olaparib/AZD2281]
Pictilisib/GDC0941 = compound: CS(=O)(=O)N1CCN(Cc2cc3nc(-c4cccc5[nH]ncc45)nc(N4CCOCC4)c3s2)CC1 [Pictilisib/GDC0941]
Rucaparib = compound: CNCc1ccc(-c2[nH]c3cc(F)cc4c3c2CCNC4=O)cc1 [Rucaparib]
BVD523 = compound: CC(C)Nc1cc(-c2c[nH]c(C(=O)N[C@H](CO)c3cccc(Cl)c3)c2)c(Cl)cn1 [BVD523]
Ipatasertib/GDC0068 = compound: CC(C)NC[C@@H](C(=O)N1CCN(c2ncnc3c2[C@H](C)C[C@H]3O)CC1)c1ccc(Cl)cc1 [Ipatasertib/GDC0068]
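Also: breast cancer and non-malignant breast epithelial cell lines, Deep Dye Drop or Dye Drop imaging, nine half-log doses, GR normalized to time-zero plates and DMSO-only controls.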

Cell Line | GR50, 72 h (INK128/MLN0128) | GR50, 72 h (R0-3306) | GR50, 72 h (Neratinib/HKI272) | GR50, 72 h [1] | GR50, 72 h (THZ531) | GR50, 72 h (ABT-737) | GR50, 72 h (Taselisib/GDC0032) | GR50, 72 h (AZD1775) | GR50, 72 h [2] | GR50, 72 h (Volasertib/BI6727) | GR50, 72 h (Flavopiridol) | GR50, 72 h (Cediranib/AZD2171) | GR50, 72 h (Alpelisib/BYL719) | GR50, 72 h (AZD6738) | GR50, 72 h (Doxorubicin) | GR50, 72 h (Tivantinib/ARQ197) | GR50, 72 h (Dasatinib) | GR50, 72 h (THZ1) | GR50, 72 h (TGX221) | GR50, 72 h [3] | GR50, 72 h (AZD7762) | GR50, 72 h [4] | GR50, 72 h (senexin b) | GR50, 72 h [5] | GR50, 72 h [6] | GR50, 72 h (Torin2) | GR50, 72 h (AZD2014) | GR50, 72 h (LEE011/Ribociclib) | GR50, 72 h [7] | GR50, 72 h (Olaparib/AZD2281) | GR50, 72 h (Pictilisib/GDC0941) | GR50, 72 h (Rucaparib) | GR50, 72 h (BVD523) | GR50, 72 h (Ipatasertib/GDC0068)
CAL851 | 0.00883 µM | 6.55 µM | 0.0339 µM | > 10 µM | 0.0715 µM | > 10 µM | 0.0604 µM | 0.212 µM | 0.0132 µM | 0.00327 µM | 0.17 µM | 2.38 µM | 3.64 µM | 4.62 µM | 0.00552 µM | 0.198 µM | 0.105 µM | 0.0085 µM | > 10 µM | > 10 µM | 0.0421 µM | 0.00209 µM | > 10 µM | < 0.001 µM | > 10 µM | 0.00862 µM | 0.00819 µM | > 10 µM | > 3.16 µM | 5.05 µM | 0.647 µM | – | – | –
HCC1187 | 0.0661 µM | – | 2.5 µM | > 10 µM | 0.0529 µM | – | 0.168 µM | 0.0228 µM | > 1 µM | 0.0078 µM | 0.237 µM | – | > 10 µM | 1.21 µM | 0.00119 µM | 0.0418 µM | 0.0343 µM | 0.0149 µM | – | > 10 µM | 0.0508 µM | 0.00763 µM | > 10 µM | 1.12 µM | > 10 µM | 0.00305 µM | – | > 10 µM | > 3.16 µM | 3.46 µM | 0.571 µM | > 10 µM | > 10 µM | –
HCC1428 | 0.00593 µM | – | 1.43 µM | > 10 µM | – | 4 µM | 4.21 µM | – | > 1 µM | 0.0187 µM | – | 3.17 µM | > 10 µM | – | 0.00474 µM | 0.252 µM | > 10 µM | – | > 10 µM | – | 0.4 µM | – | – | – | > 10 µM | 0.0128 µM | – | – | 0.073 µM | 0.553 µM | 5.87 µM | – | – | > 10 µM
HCC1500 | 0.000784 µM | – | 0.785 µM | > 10 µM | – | 0.00851 µM | 1.88 µM | – | 0.142 µM | 0.0116 µM | – | 3.86 µM | > 10 µM | – | 0.0163 µM | 0.115 µM | 0.00348 µM | – | > 10 µM | – | 0.0356 µM | – | – | – | 1.66 µM | 0.00186 µM | – | – | > 3.16 µM | 6.33 µM | 2.26 µM | – | – | > 10 µM
HCC1569 | 0.0132 µM | 4.54 µM | 0.0891 µM | > 10 µM | 0.0461 µM | 1.07 µM | 0.0552 µM | 0.00634 µM | > 1 µM | 0.0189 µM | 0.11 µM | > 10 µM | 5.28 µM | 3.49 µM | 0.0255 µM | 0.992 µM | 0.0769 µM | 0.0283 µM | > 10 µM | > 10 µM | 0.0361 µM | 0.00952 µM | > 10 µM | – | > 10 µM | 0.0105 µM | – | > 10 µM | > 3.16 µM | > 10 µM | 0.599 µM | > 10 µM | > 10 µM | 0.394 µM
HCC1954 | 0.0142 µM | 6.63 µM | 0.0672 µM | > 10 µM | 0.362 µM | 9.94 µM | 0.00701 µM | 1.58 µM | 0.0167 µM | 0.00659 µM | 0.128 µM | 4.08 µM | 1.23 µM | 5.43 µM | 0.00718 µM | 0.167 µM | 1.86 µM | 0.0995 µM | > 10 µM | > 10 µM | 0.127 µM | 0.00444 µM | – | < 0.001 µM | > 10 µM | 0.0097 µM | 0.0484 µM | > 10 µM | > 3.16 µM | > 10 µM | 0.944 µM | > 10 µM | 2.94 µM | 1.43 µM
MDAMB157 | 0.0318 µM | – | 0.796 µM | > 10 µM | – | 6.41 µM | 1.36 µM | – | 0.111 µM | 0.00692 µM | – | 0.825 µM | 9.77 µM | – | 0.00323 µM | 0.777 µM | 0.0605 µM | – | > 10 µM | – | 0.0154 µM | – | – | – | 3.78 µM | 0.0344 µM | – | – | > 3.16 µM | 5.39 µM | 2.05 µM | – | – | > 10 µM
MDAMB175VII | 0.00349 µM | – | 0.00127 µM | > 10 µM | 0.0409 µM | 4.58 µM | 0.00272 µM | 0.0486 µM | 0.00195 µM | 0.0114 µM | 0.0523 µM | 4.54 µM | 0.154 µM | 8.53 µM | 0.00311 µM | 0.267 µM | 0.0162 µM | 0.0271 µM | > 10 µM | 0.0785 µM | 0.0769 µM | 0.00391 µM | 0.387 µM | < 0.001 µM | 1.34 µM | 0.0022 µM | < 0.001 µM | – | 0.00212 µM | 9.32 µM | 0.345 µM | > 10 µM | 0.255 µM | 0.22 µM
